Experimental findings from article PMC5908784, “Extracellular loops 2 and 3 of the calcitonin receptor selectively modify agonist binding and efficacy” (Biochemical Pharmacology, 2018) are described below.

Common to all, as to assay: cAMP accumulation
Type in all cases: cell-based

The target of test [1] is T1, hCTR Y284A (Homo sapiens, UniProt P30988, Y284A).
T1 construct: expressed in transfected cells
T1 sequence (P30988 25-474 Y284A): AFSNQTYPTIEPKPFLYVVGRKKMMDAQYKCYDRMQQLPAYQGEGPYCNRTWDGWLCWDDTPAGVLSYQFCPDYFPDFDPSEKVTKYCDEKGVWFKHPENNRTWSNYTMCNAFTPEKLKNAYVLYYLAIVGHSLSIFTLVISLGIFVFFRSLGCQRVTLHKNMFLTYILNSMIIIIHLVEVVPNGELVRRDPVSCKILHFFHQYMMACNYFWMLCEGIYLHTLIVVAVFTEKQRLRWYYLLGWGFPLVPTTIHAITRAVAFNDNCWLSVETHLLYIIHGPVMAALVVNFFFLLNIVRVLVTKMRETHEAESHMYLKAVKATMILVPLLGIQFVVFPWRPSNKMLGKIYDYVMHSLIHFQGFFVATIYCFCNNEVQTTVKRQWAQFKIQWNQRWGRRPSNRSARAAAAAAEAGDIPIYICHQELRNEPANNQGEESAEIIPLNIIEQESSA
The note with it: mean ± S.E.M.; for Emax: cAMP maximal response, SEM; for EC50: cAMP, CV1-FlpIn cells, 30 min, IBMX. In short, it runs like this:
(§1)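 30 min ligand stimulation with IBMX present; cells seeded overnight beforehand. Ethanol extract, dried at RT.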

The target of test [2] is T2, hCTR D287A (Homo sapiens, UniProt P30988, D287A).
T2 construct: c-Myc (N); expressed in transfected cells
T2 sequence (P30988 25-474 D287A): T1 sequence (P30988 25-474 Y284A) with A260Y, D263A
The following applies: mean ± S.E.M.; for Emax: cAMP maximal response, SEM. In short, it runs like this: as §1

Test [3] deals with T3, hCTR L291A (Homo sapiens, UniProt P30988, L291A).
T3 construct: expressed in transfected cells
T3 sequence (P30988 25-474 L291A): T1 sequence (P30988 25-474 Y284A) with A260Y, L267A
The note with it: mean ± S.E.M.; for Emax: cAMP maximal response, SEM. In short, it runs like this:
as §1

In test [4] the target is T4, hCTR N288A (Homo sapiens, UniProt P30988, N288A).
T4 construct: expressed in transfected cells
T4 sequence (P30988 25-474 N288A): T1 sequence (P30988 25-474 Y284A) with A260Y, N264A
The following applies: mean ± S.E.M.; for Emax: cAMP maximal response, SEM; for EC50: cAMP, CV1-FlpIn cells, 30 min, IBMX. Put shortly: as §1

The target in test [5] is T5, hCTR R362A (Homo sapiens, UniProt P30988, R362A).
T5 construct: expressed in transfected cells
T5 sequence (P30988 25-474 R362A): T1 sequence (P30988 25-474 Y284A) with A260Y, R338A
The following applies: for Emax: read-out: Emax (% WT), SEM; for EC50: cAMP, CV1-FlpIn cells, 30 min, IBMX. Put shortly:
as §1

Where [6] appears, read: R362A, cAMP maximal response, mean ± S.E.M.
Setting [7] is: cAMP, CV1-FlpIn cells, 30 min, IBMX.

Where a chain is given by its changes, count along the chain named. Read-outs that look alike come from different tables or passages of the source. Where a SMILES comes first, the peptide text is derived from it. Bridges are numbered along the chain shown (N, C = ends).

The term Emax denotes the greatest response seen or fitted, relative to the assay's reference. As to `CC[C@H](C)[C@H](NC(=O)[C@H](C)NC(=O)[C@@H](NC(=O)[C@H](CCC(N)=O)NC(=O)[C@@H]1CCCN1C(=O)[C@H](Cc1ccccc1)NC(=O)[C@@H](NC(=O)[C@H](Cc1c[nH]cn1)NC(=O)[C@H](Cc1ccccc1)NC(=O)[C@H](CCCCN)NC(=O)[C@H](CC(N)=O)NC(=O)[C@H](Cc1ccccc1)NC(=O)[C@H](CC(=O)O)NC(=O)[C@H](CCC(N)=O)NC(=O)[C@@H](NC(=O)[C@H](Cc1ccc(O)cc1)NC(=O)[C@@H](NC(=O)CNC(=O)[C@H](CC(C)C)NC(=O)[C@H](CCSC)NC(=O)[C@@H]1CSSC[C@H](N)C(=O)NCC(=O)N[C@@H](CC(N)=O)C(=O)N[C@@H](CC(C)C)C(=O)N[C@@H](CO)C(=O)N[C@@H]([C@@H](C)O)C(=O)N1)[C@@H](C)O)[C@@H](C)O)[C@@H](C)O)[C@@H](C)O)C(=O)NCC(=O)N[C@H](C(=O)NCC(=O)N[C@@H](C)C(=O)N1CCC[C@H]1C(N)=O)C(C)C` [hCT], the Emax in test [1] is 103 ± 10%; in test [2] it was 140 ± 18%; in test [3], 131 ± 5%; in test [4], 117 ± 10%; in test [5] it was 125 ± 9%.
A word on the EC50: it is the concentration giving half of the maximal effect. The low end stands for greater potency, the high end for weaker potency. With `CC(C)C[C@H](NC(=O)CNC(=O)[C@H](C)NC(=O)[C@H](CC(C)C)NC(=O)[C@H](CCCNC(=N)N)NC(=O)[C@H](Cc1cnc[nH]1)NC(=O)[C@@H](NC(=O)[C@@H](NC(=O)[C@@H]1CSSC[C@H](NC(=O)[C@H](C)N)C(=O)N[C@@H](CC(=O)O)C(=O)N[C@@H]([C@@H](C)O)C(=O)N[C@@H](C)C(=O)N[C@@H]([C@@H](C)O)C(=O)N1)C(C)C)[C@@H](C)O)C(=O)N[C@@H](CC(C)C)C(=O)N[C@@H](CO)C(=O)N[C@@H](CCCNC(=N)N)C(=O)N[C@@H](CO)C(=O)NCC(=O)NCC(=O)N[C@H](C(=O)N[C@H](C(=O)N[C@@H](CCCCN)C(=O)N[C@@H](CC(N)=O)C(=O)N[C@@H](CC(N)=O)C(=O)N[C@@H](Cc1ccccc1)C(=O)N[C@H](C(=O)N1CCC[C@H]1C(=O)N[C@H](C(=O)N[C@@H](CC(N)=O)C(=O)N[C@H](C(=O)NCC(=O)N[C@@H](CO)C(=O)N[C@@H](CCCCN)C(=O)N[C@@H](C)C(=O)N[C@@H](Cc1ccccc1)C(N)=O)C(C)C)[C@@H](C)O)C(C)C)C(C)C)C(C)C` [hαCGRP], the Emax in test [1] came out at 139 ± 22%; in test [3], 101 ± 36%; in test [4], 118 ± 17%; in test [5] (setting [6]), 51 ± 9%. For the same compound, the EC50 was 19.1 nM in test [1]; 10.2 nM in test [4]; 17.8 nM in test [5] (R362A, mean ± S.E.M.).
Consider `CSCC[C@H](NC(=O)CNC(=O)[C@H](CO)NC(=O)[C@H](Cc1ccccc1)NC(=O)[C@H](CCCNC(=N)N)NC(=O)[C@H](Cc1c[nH]cn1)NC(=O)[C@H](Cc1ccccc1)NC(=O)[C@H](CC(N)=O)NC(=O)[C@H](CC(N)=O)NC(=O)[C@H](CC(C)C)NC(=O)[C@H](CC(N)=O)NC(=O)[C@H](CCCNC(=N)N)NC(=O)[C@H](Cc1c[nH]c2ccccc12)NC(=O)[C@H](Cc1ccc(O)cc1)NC(=O)[C@H](C)NC(=O)[C@H](CO)NC(=O)[C@H](CC(C)C)NC(=O)[C@@H](NC(=O)[C@@H]1CSSC[C@H](N)C(=O)N[C@@H](CO)C(=O)N[C@@H](CC(N)=O)C(=O)N[C@@H](CC(C)C)C(=O)N[C@@H](CO)C(=O)N[C@@H]([C@@H](C)O)C(=O)N1)C(C)C)C(=O)NCC(=O)N[C@@H](Cc1ccccc1)C(=O)NCC(=O)N1CCC[C@H]1C(=O)N[C@@H](CCC(=O)O)C(=O)N[C@H](C(=O)N1CCC[C@H]1C(N)=O)[C@@H](C)O` [pCT] (H-CSNLSTCVLSAYWRNLNNFHRFSGMGFGPETP-NH2; disulfide 1-7), for which the Emax in test [1] worked out at 104 ± 9%; in test [2], 74 ± 9%; in test [3], 105 ± 5%; in test [4] it was 105 ± 10%; in test [5] (setting [6]), 138 ± 9%. Besides, the EC50 in test [1] is 0.0631 nM; in test [2] (setting [7]), 1.91 nM; in test [3] (setting [7]), 0.316 nM; in test [4] it was 0.0631 nM; in test [5] (R362A, mean ± S.E.M.), 0.182 nM.
Take `CC(C)C[C@H](NC(=O)[C@H](CC(N)=O)NC(=O)[C@H](CC(N)=O)NC(=O)[C@H](CO)NC(=O)[C@H](CO)NC(=O)[C@H](CCCNC(=N)N)NC(=O)[C@@H](NC(=O)[C@H](CC(C)C)NC(=O)[C@H](Cc1ccccc1)NC(=O)[C@H](CC(N)=O)NC(=O)[C@H](C)NC(=O)[C@H](CC(C)C)NC(=O)[C@H](CCCNC(=N)N)NC(=O)[C@H](CCC(N)=O)NC(=O)[C@@H](NC(=O)[C@H](C)NC(=O)[C@@H]1CSSC[C@H](NC(=O)[C@@H](N)CCCCN)C(=O)N[C@@H](CC(N)=O)C(=O)N[C@@H]([C@@H](C)O)C(=O)N[C@@H](C)C(=O)N[C@@H]([C@@H](C)O)C(=O)N1)[C@@H](C)O)C(C)C)C(=O)NCC(=O)N1CCC[C@H]1C(=O)N[C@H](C(=O)N[C@@H](CC(C)C)C(=O)N1CCC[C@H]1C(=O)N1CCC[C@H]1C(=O)N[C@H](C(=O)N[C@@H](CC(N)=O)C(=O)N[C@H](C(=O)NCC(=O)N[C@@H](CO)C(=O)N[C@@H](CC(N)=O)C(=O)N[C@H](C(=O)N[C@@H](Cc1ccc(O)cc1)C(N)=O)[C@@H](C)O)C(C)C)[C@@H](C)O)C(C)C` [rAmy]: the Emax in test [1] came out at 101 ± 10%; in test [3], 101 ± 13%; in test [4], 64 ± 8%; in test [5] it was 88 ± 12%.
